In patent US20220167618A1, “PESTICIDALLY ACTIVE AZOLE-AMIDE COMPOUNDS” (SYNGENTA CROP PROTECTION AG, priority 2019, published 2022):

Tests used:
Format in all cases: in vivo
[1] = test system: Diabrotica balteata (Corn Root Worm); experiment: Example B1: Diabrotica balteata (corn root worm), sprayed maize sprouts; settings: 96 h, application rate 200 ppm, L2 larvae, 4 days after infestation, read-out: control in at least one of the two categories (mortality or growth inhibition)
Description: Example B1: Diabrotica balteata (Corn Root Worm)
Maize sprouts placed onto an agar layer in 24-well microtiter plates were treated with aqueous test solutions prepared from 10′000 ppm DMSO stock solutions by spraying. After drying, the plates were infested with L2 larvae (6 to 10 per well). The samples were assessed for mortality and growth inhibition in comparison to untreated samples 4 days after infestation.

[2] = test system: Plutella xylostella (Diamond Back Moth); experiment: Example B5: Plutella xylostella (diamond back moth), artificial diet, 24-well; settings: 192 h, application rate 200 ppm, eggs, 8 days after infestation, read-out: control in at least one of the two categories (mortality or growth inhibition)
Description: Example B5: Plutella xylostella (Diamond Back Moth)
24-well microtiter plates with artificial diet were treated with aqueous test solutions prepared from 10′000 ppm DMSO stock solutions by pipetting. After drying, Plutella eggs were pipetted through a plastic stencil onto a gel blotting paper and the plate was closed with it. The samples were assessed for mortality and growth inhibition in comparison to untreated samples 8 days after infestation.

[3] = test system: Spodoptera littoralis (Egyptian Cotton Leaf Worm); experiment: Example B9: Spodoptera littoralis (Egyptian cotton leaf worm), sprayed cotton leaf discs; settings: foliar, 72 h, application rate 200 ppm, L1 larvae, 3 days after infestation, read-out: control in at least one of the three categories (mortality, anto-feedant or growth inhibition)
[4] = test system: Chilo suppressalis (Striped Rice Stemborer); experiment: Example B4: Chilo suppressalis (striped rice stemborer), artificial diet; settings: 144 h, application rate 200 ppm, L2 larvae, 6 days after infestation, read-out: control in at least one of the three categories (mortality, anti-feedant or growth inhibition)
Description: Example B4: Chilo suppressalis (Striped Rice Stemborer)
24-well microtiter plates with artificial diet were treated with aqueous test solutions prepared from 10′000 ppm DMSO stock solutions by pipetting. After drying, the plates were infested with L2 larvae (6-8 per well). The samples were assessed for mortality, anti-feeding effect, and growth inhibition in comparison to untreated samples 6 days after infestation. Control of Chilo suppressalis by a test sample is given when at least one of the categories mortality, anti-feedant effect, and growth inhibition is higher than the untreated sample.

CC(NC(=O)c1cc(C(F)(F)F)nc(C2(C#N)CC2)c1)c1nc(Br)nn1-c1ccc(C#N)cn1 (stereo not drawn) [Compound P2, N-[1-[5-bromo-2-(5-cyano-2-pyridyl)-1,2,4-triazol-3-yl]ethyl]-2-(1-cyanocyclopropyl)-6-(trifluoromethyl)pyridine-4-carboxamide]
≥ 80%: percent control (mortality or growth inhibition) at 200 ppm [1] | percent control (mortality or growth inhibition) at 200 ppm [2] | percent control (mortality, anti-feedant or growth inhibition) at 200 ppm [3] | percent control (mortality, anti-feedant or growth inhibition) at 200 ppm [4]

CC(NC(=O)c1cc(C(F)(F)F)cc(C2(C#N)CC2)c1)c1nc(Br)nn1-c1ncc(OCC(F)F)cn1 (stereo not drawn) [Compound P3, N-[1-[5-bromo-2-[5-(2,2-difluoroethoxy)pyrimidin-2-yl]-1,2,4-triazol-3-yl]ethyl]-3-(1-cyanocyclopropyl)-5-(trifluoromethyl)benzamide]
≥ 80%: percent control (mortality or growth inhibition) at 200 ppm [1] | percent control (mortality or growth inhibition) at 200 ppm [2] | percent control (mortality, anti-feedant or growth inhibition) at 200 ppm [3] | percent control (mortality, anti-feedant or growth inhibition) at 200 ppm [4]

CC(NC(=O)c1cc(C(F)(F)F)cc(C(F)(F)C2CC2)c1)c1nc(Br)nn1-c1ncc(OCC(F)(F)F)cn1 (stereo not drawn) [Compound P9, N-[1-[5-bromo-2-[5-(2,2,2-trifluoroethoxy)pyrimidin-2-yl]-1,2,4-triazol-3-yl]ethyl]-3-[cyclopropyl(difluoro)methyl]-5-(trifluoromethyl)benzamide]
≥ 80%: percent control (mortality or growth inhibition) at 200 ppm [2] | percent control (mortality, anti-feedant or growth inhibition) at 200 ppm [3] | percent control (mortality, anti-feedant or growth inhibition) at 200 ppm [4]

CC(NC(=O)c1cc(C(F)(F)F)cc(C2(C#N)CC2)c1)c1nc(Br)nn1-c1ncc(OCC(F)(F)F)cn1 (stereo not drawn) [Compound P10, N-[1-[5-bromo-2-[5-(2,2,2-trifluoroethoxy)pyrimidin-2-yl]-1,2,4-triazol-3-yl]ethyl]-3-(1-cyanocyclopropyl)-5-(trifluoromethyl)benzamide]
≥ 80%: percent control (mortality or growth inhibition) at 200 ppm [1] | percent control (mortality or growth inhibition) at 200 ppm [2] | percent control (mortality, anti-feedant or growth inhibition) at 200 ppm [3] | percent control (mortality, anti-feedant or growth inhibition) at 200 ppm [4]

CC(NC(=O)c1cc(C2CC2C(F)(F)F)cc(C(F)(F)F)c1)c1nc(Br)nn1-c1ncc(OCC(F)F)cn1 (stereo not drawn) [Compound P13, N-[1-[5-bromo-2-[5-(2,2-difluoroethoxy)pyrimidin-2-yl]-1,2,4-triazol-3-yl]ethyl]-3-(trifluoromethyl)-5-[2-(trifluoromethyl)cyclopropyl]benzamide]
≥ 80%: percent control (mortality or growth inhibition) at 200 ppm [1] | percent control (mortality or growth inhibition) at 200 ppm [2] | percent control (mortality, anti-feedant or growth inhibition) at 200 ppm [3] | percent control (mortality, anti-feedant or growth inhibition) at 200 ppm [4]

CC(NC(=O)c1cc(C(F)(F)F)cc(C(F)(F)C2CC2)c1)c1nc(Br)nn1-c1ncc(OCC(F)F)cn1 (stereo not drawn) [Compound P15, N-[1-[5-bromo-2-[5-(2,2-difluoroethoxy)pyrimidin-2-yl]-1,2,4-triazol-3-yl]ethyl]-3-[cyclopropyl(difluoro)methyl]-5-(trifluoromethyl)benzamide]
≥ 80%: percent control (mortality or growth inhibition) at 200 ppm [1] | percent control (mortality or growth inhibition) at 200 ppm [2] | percent control (mortality, anti-feedant or growth inhibition) at 200 ppm [3] | percent control (mortality, anti-feedant or growth inhibition) at 200 ppm [4]

CC(NC(=O)c1cc(C2CC2C(F)(F)F)cc(C(F)(F)F)c1)c1nc(Br)nn1-c1ccc(C#N)cn1 (stereo not drawn) [Compound P16, N-[1-[5-bromo-2-(5-cyano-2-pyridyl)-1,2,4-triazol-3-yl]ethyl]-3-(trifluoromethyl)-5-[2-(trifluoromethyl)cyclopropyl]benzamide]
≥ 80%: percent control (mortality or growth inhibition) at 200 ppm [1] | percent control (mortality or growth inhibition) at 200 ppm [2] | percent control (mortality, anti-feedant or growth inhibition) at 200 ppm [3] | percent control (mortality, anti-feedant or growth inhibition) at 200 ppm [4]

CC(NC(=O)c1cc(C(F)(F)F)cc(S(=O)(=O)C(F)(F)F)c1)c1nc(Br)nn1-c1ccc(C#N)cn1 (stereo not drawn) [Compound P17, N-[1-[5-bromo-2-(5-cyano-2-pyridyl)-1,2,4-triazol-3-yl]ethyl]-3-(trifluoromethyl)-5-(trifluoromethylsulfonyl)benzamide]
≥ 80%: percent control (mortality or growth inhibition) at 200 ppm [1] | percent control (mortality or growth inhibition) at 200 ppm [2] | percent control (mortality, anti-feedant or growth inhibition) at 200 ppm [3] | percent control (mortality, anti-feedant or growth inhibition) at 200 ppm [4]

CC(NC(=O)c1cc(C2CC2)cc(C(F)(F)F)c1)c1nc(Br)nn1-c1ccc(C#N)cn1 (stereo not drawn) [Compound P19, N-[1-[5-bromo-2-(5-cyano-2-pyridyl)-1,2,4-triazol-3-yl]ethyl]-3-cyclopropyl-5-(trifluoromethyl)benzamide]
≥ 80%: percent control (mortality or growth inhibition) at 200 ppm [1] | percent control (mortality or growth inhibition) at 200 ppm [2] | percent control (mortality, anti-feedant or growth inhibition) at 200 ppm [3] | percent control (mortality, anti-feedant or growth inhibition) at 200 ppm [4]

CC(NC(=O)c1cc(C2CC2)nc(C(F)(F)F)c1)c1nc(Br)nn1-c1ccc(C#N)cn1 (stereo not drawn) [Compound P20, N-[1-[5-bromo-2-(5-cyano-2-pyridyl)-1,2,4-triazol-3-yl]ethyl]-2-cyclopropyl-6-(trifluoromethyl)pyridine-4-carboxamide]
≥ 80%: percent control (mortality or growth inhibition) at 200 ppm [1] | percent control (mortality or growth inhibition) at 200 ppm [2] | percent control (mortality, anti-feedant or growth inhibition) at 200 ppm [3] | percent control (mortality, anti-feedant or growth inhibition) at 200 ppm [4]

CC(NC(=O)c1cc(C(F)(F)F)cc(C(F)(F)C2CC2)c1)c1nc(Br)nn1-c1ccc(C#N)cn1 (stereo not drawn) [Compound P21, N-[1-[5-bromo-2-(5-cyano-2-pyridyl)-1,2,4-triazol-3-yl]ethyl]-3-[cyclopropyl(difluoro)methyl]-5-(trifluoromethyl)benzamide]
≥ 80%: percent control (mortality or growth inhibition) at 200 ppm [1] | percent control (mortality or growth inhibition) at 200 ppm [2] | percent control (mortality, anti-feedant or growth inhibition) at 200 ppm [3] | percent control (mortality, anti-feedant or growth inhibition) at 200 ppm [4]

CC(NC(=O)c1cc(C(F)(F)F)cc(C2(C#N)CC2)c1)c1nc(Br)nn1-c1ccc(OCC(F)(F)F)cn1 (stereo not drawn) [Compound P23, N-[1-[5-bromo-2-[5-(2,2,2-trifluoroethoxy)-2-pyridyl]-1,2,4-triazol-3-yl]ethyl]-3-(1-cyanocyclopropyl)-5-(trifluoromethyl)benzamide]
≥ 80%: percent control (mortality or growth inhibition) at 200 ppm [2] | percent control (mortality, anti-feedant or growth inhibition) at 200 ppm [3] | percent control (mortality, anti-feedant or growth inhibition) at 200 ppm [4]

CC(NC(=O)c1cc(C2CC2)cc(C(F)(F)F)c1)c1nc(Br)nn1-c1ccc(OC(F)F)cn1 (stereo not drawn) [Compound P25, N-[1-[5-bromo-2-[5-(difluoromethoxy)-2-pyridyl]-1,2,4-triazol-3-yl]ethyl]-3-cyclopropyl-5-(trifluoromethyl)benzamide]
≥ 80%: percent control (mortality or growth inhibition) at 200 ppm [1] | percent control (mortality or growth inhibition) at 200 ppm [2] | percent control (mortality, anti-feedant or growth inhibition) at 200 ppm [3] | percent control (mortality, anti-feedant or growth inhibition) at 200 ppm [4]

CC(NC(=O)c1cc(C2CC2)cc(C(F)(F)F)c1)c1nc(Br)nn1-c1ccc(OCC(F)(F)F)cn1 (stereo not drawn) [Compound P28, N-[1-[5-bromo-2-[5-(2,2,2-trifluoroethoxy)-2-pyridyl]-1,2,4-triazol-3-yl]ethyl]-3-cyclopropyl-5-(trifluoromethyl)benzamide]
≥ 80%: percent control (mortality or growth inhibition) at 200 ppm [2] | percent control (mortality, anti-feedant or growth inhibition) at 200 ppm [4]

CC(NC(=O)c1cc(C2CC2(F)F)cc(C(F)(F)F)c1)c1nc(Br)nn1-c1ccc(OCC(F)(F)F)cn1 (stereo not drawn) [Compound P29, N-[1-[5-bromo-2-[5-(2,2,2-trifluoroethoxy)-2-pyridyl]-1,2,4-triazol-3-yl]ethyl]-3-(2,2-difluorocyclopropyl)-5-(trifluoromethyl)benzamide]
≥ 80%: percent control (mortality or growth inhibition) at 200 ppm [2] | percent control (mortality, anti-feedant or growth inhibition) at 200 ppm [4]

CC(NC(=O)c1cc(C(F)(F)F)cc(C(C)(C)C#N)c1)c1nc(Br)nn1-c1ncc(OCC(F)F)cn1 (stereo not drawn) [Compound P38, N-[1-[5-bromo-2-[5-(2,2-difluoroethoxy)pyrimidin-2-yl]-1,2,4-triazol-3-yl]ethyl]-3-(1-cyano-1-methyl-ethyl)-5-(trifluoromethyl)benzamide]
≥ 80%: percent control (mortality or growth inhibition) at 200 ppm [1] | percent control (mortality or growth inhibition) at 200 ppm [2] | percent control (mortality, anti-feedant or growth inhibition) at 200 ppm [3] | percent control (mortality, anti-feedant or growth inhibition) at 200 ppm [4]

CC(NC(=O)c1cc(C(F)(F)F)cc(C(C)(C)C#N)c1)c1nc(Br)nn1-c1ccc(OCC(F)(F)F)cn1 (stereo not drawn) [Compound P41, N-[1-[5-bromo-2-[5-(2,2,2-trifluoroethoxy)-2-pyridyl]-1,2,4-triazol-3-yl]ethyl]-3-(1-cyano-1-methyl-ethyl)-5-(trifluoromethyl)benzamide]
≥ 80%: percent control (mortality or growth inhibition) at 200 ppm [2] | percent control (mortality, anti-feedant or growth inhibition) at 200 ppm [4]
